One experiment has as its target METTL3/14 (Homo sapiens (Human), UniProt Q86U44). The experiment in a line: METTL3/14 methyltransferase assay (RapidFire mass spectrometry, RFMS). Format: biochemical. The settings on record: 5 nM METTL3/14, 0.2 μM RNA substrate, 0.5 μM SAM, 60 minutes at room temperature. As for the experimental part: The enzymatic assay was established to determine IC50 values for inhibition of RNA methyltransferase activity. The enzyme used was full-length his-tagged METTL3 co-expressed with full length FLAG-tagged METTL14 in a baculovirus expression system. Enzymatic reactions were performed at room temperature in 384-well plates using a final reaction volume of 20 μL containing 20 mM TrisCl pH 7.6, 1 mM DTT, 0.01% Tween-20. 5 nM final concentration of METTL3/14 was pre-incubated with various compound concentrations for 10 minutes, followed by addition of 0.2 μM final concentration synthetic RNA substrate (5′P-[…]-3′) and 0.5 μM final concentration S-adenosyl-methionine (SAM). The reaction was incubated for a further 60 minutes at room temperature, and then quenched by the addition of 40 μL 7.5% TCA with two internal product standards (D4-SAH and 13C10-SAH). After termination, plates were sealed, centrifuged and stored at 4° C. until analysis.
RNA methyltransferase activity was measured label free using the RapidFire™ mass spectrometry (RF/MS) platform. Stopped and stable assay plates were analyzed on the Agilent RF300 integrated autosampler/solid-phase extraction (SPE) system coupled to an ABSciex 4000 mass spectrometer for the generation of the product S-adenosyl homocysteine (SAH) and normalized to the ratio of signal of the two internal product standards, respectively. Solvent A was water containing 0.1% (v/v) TCA. Solvent B was acetonitrile/0.1% ammonium acetate (8:2, v/v). More specifically, plates were centrifuged at 4350 rpm for 10 min, samples were aspirated under vacuum for 600 ms, then loaded onto a C18 solid-phase extraction cartridge and washed for 3 s with solvent A at a flow rate of 1.5 mL/min. Retained product and internal standards were eluted with solvent B at a flow rate of 1 mL/min for 3 s and finally the cartridge was re-equilibrated with solvent A for 500 ms. The mass transition for the product (SAH) was 384.9/135.9 Da. Transitions of the two internal product standards (IS1: D4-SAH and IS2: 13C10-SAH) were 389.1/135.8 Da and 395.0/134.2 Da, respectively. Ratios of SAH/IS1 and SAH/IS2 were used for normalization of matrix effects. IC50 values were calculated based on dilution series of individual compounds. Potency of a compound was measured at varied inhibitor concentrations and normalized to control wells without RNA substrate and without inhibition (DMSO only).

A further experiment concerns KASUMI-1 cells. Description: Kasumi cell proliferation CTG. It is filed as cell-based. The settings on record: Homo sapiens, Kasumi 1, 120 h, treated for 120 hours, CellTiter-Glo. As for the experimental part: Cell culture: KASUMI-1 cells (ACC20, Leibniz-Institut DSMZ Deutsche Sammlung von Mikroorganismen und Zellkulturen GmbH) were grown in RPMI 1640 (31870-025, Gibco) supplemented with 20% fetal bovine serum (F1524, Gibco), 1 mM sodium pyruvate (11360-039, Gibco) and 2 mM Glutamax (35050-038, Gibco) in a 5% CO2 humidified incubator at 37° C.
Cell treatment and cell growth assessment: KASUMI-1 cells were seeded in ultra-low attachment 384-well culture plate (MS-9384WZ, SBio) at a final concentration of 250 000 cells/ml (35 μL/well) and treated for 120 hours with compounds inhibiting the METTL3/14 activity (10 serial semi-log dilutions, 30 μM as top concentration). Upon treatment, Kasumi1 cells were incubated for 10 min at RT with the CellTiter-Glo reagent (G7571, Promega). Measurement of the luminescence signal was performed on a microplate reader (Ensight, PerkinElmer).

The subject of a further experiment is Caov-3 cells. The experiment in a line: Caov3 cell proliferation CTG. Format: cell-based. The following applies: Homo sapiens, treated for 120 hours, CellTiter-Glo. As for the experimental part: Cell treatment and cell growth assessment: 18 hours post-seeding in white 384-Viewplate (6007480, PerkinElmer) at 1500 cells/well, Caov3 cells were treated for 120 hours with compounds inhibiting the METTL3/14 activity (10 serial semi-log dilutions, 30 μM as top concentration). Upon treatment, Coav-3 cells were incubated for 10 min at RT with the CellTiter-Glo reagent (G7571, Promega). Measurement of the luminescence signal was performed on a microplate reader (Ensight, PerkinElmer).
Background: In ATP-based viability assays light output follows the ATP content of the culture.

These results are taken from US20240101589A1, “INHIBITORS OF METTL3” (Strom Therapeutics Limited, priority 2020, published 2024).

Sequence of METTL3/14 (Q86U44 whole entry): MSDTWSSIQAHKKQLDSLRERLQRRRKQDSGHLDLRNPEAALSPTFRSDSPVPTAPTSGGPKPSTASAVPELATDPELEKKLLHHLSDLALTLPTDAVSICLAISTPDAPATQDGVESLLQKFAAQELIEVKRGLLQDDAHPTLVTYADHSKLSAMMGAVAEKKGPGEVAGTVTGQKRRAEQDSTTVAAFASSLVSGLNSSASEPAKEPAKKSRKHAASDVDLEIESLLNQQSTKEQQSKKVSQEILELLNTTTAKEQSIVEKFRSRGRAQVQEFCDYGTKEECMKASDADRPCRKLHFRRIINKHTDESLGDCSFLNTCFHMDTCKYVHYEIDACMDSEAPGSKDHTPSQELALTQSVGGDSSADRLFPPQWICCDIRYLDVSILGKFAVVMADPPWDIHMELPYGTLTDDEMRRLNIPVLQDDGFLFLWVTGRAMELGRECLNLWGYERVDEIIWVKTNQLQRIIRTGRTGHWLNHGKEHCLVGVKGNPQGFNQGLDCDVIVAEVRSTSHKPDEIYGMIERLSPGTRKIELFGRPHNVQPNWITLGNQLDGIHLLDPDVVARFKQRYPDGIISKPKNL
Sequence of METTL3/14 (Q9HCE5 whole entry partner): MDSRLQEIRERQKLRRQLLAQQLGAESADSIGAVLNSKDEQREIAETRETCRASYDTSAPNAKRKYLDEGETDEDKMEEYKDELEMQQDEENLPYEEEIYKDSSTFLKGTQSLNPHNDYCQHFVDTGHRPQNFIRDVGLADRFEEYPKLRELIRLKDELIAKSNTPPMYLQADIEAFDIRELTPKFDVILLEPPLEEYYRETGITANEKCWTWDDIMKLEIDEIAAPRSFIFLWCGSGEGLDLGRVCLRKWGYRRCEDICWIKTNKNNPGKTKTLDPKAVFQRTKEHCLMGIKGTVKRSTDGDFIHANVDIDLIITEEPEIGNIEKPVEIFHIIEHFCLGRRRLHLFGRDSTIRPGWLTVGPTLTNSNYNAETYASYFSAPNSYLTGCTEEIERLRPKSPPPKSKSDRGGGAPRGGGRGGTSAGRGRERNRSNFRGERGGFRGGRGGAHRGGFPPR

As usually defined, the IC50 is the midpoint of a concentration-inhibition curve. Low readings indicate greater potency in that assay, high ones weaker potency in that assay. As to `Nc1ncnc2c1c(Br)cn2[C@@H]1C[C@H](c2ccc(CN3CCC4(CCC4)C3)cc2)[C@@H](O)[C@H]1O` [Example 35, (1R,2S,3R,5R)-3-{4-amino-5-bromo-7H-pyrrolo[2,3-d]pyrimidin-7-yl}-5-[4-({6-azaspiro[3.4]octan-6-yl}methyl)phenyl]cyclopentane-1,2-diol], the IC50 is 0.0637 µM against METTL3/14, 4.16 µM with KASUMI-1 cells and 4.56 µM in the experiment with Caov-3 cells.
`CC1(C)CCN(Cc2ccc([C@H]3C[C@@H](n4cc(Br)c5c(N)ncnc54)[C@H](O)[C@@H]3O)cc2)CC1` [Example 36, (1R,2S,3R,5R)-3-{4-amino-5-bromo-7H-pyrrolo[2,3-d]pyrimidin-7-yl}-5-{4-[(4,4-dimethylpiperidin-1-yl)methyl]phenyl}cyclopentane-1,2-diol]: the IC50 at METTL3/14 came out at 0.103 µM; in the experiment with KASUMI-1 cells it was 5.27 µM; in the experiment with Caov-3 cells, 7.75 µM.
For the molecule `Nc1ncnc2c1c(Br)cn2[C@@H]1C[C@H](c2cccc(CCNCC34CC(F)(C3)C4)c2)[C@@H](O)[C@H]1O` [Example 37, (1R,2S,3R,5R)-3-{4-amino-5-bromo-7H-pyrrolo[2,3-d]pyrimidin-7-yl}-5-(3-{2-[{{3-fluorobicyclo[1.1.1]pentan-1-yl}methyl)amino]ethyl}phenyl)cyclopentane-1,2-diol], the figures for the IC50 against METTL3/14, in the experiment on KASUMI-1 cells and in the experiment with Caov-3 cells were 0.117 µM, 2.14 µM and 3.26 µM, respectively.
Turning to `Nc1ncnc2c1c(Br)cn2[C@@H]1C[C@H](c2cccc(CN3CCC4(CCC4)C3)c2)[C@@H](O)[C@H]1O` [Example 38, (1R,2S,3R,5R)-3-{4-amino-5-bromo-7H-pyrrolo[2,3-d]pyrimidin-7-yl}-5-[3-({6-azaspiro[3.4]octan-6-yl}methyl)phenyl]cyclopentane-1,2-diol], the values for the IC50 at METTL3/14, in the experiment with KASUMI-1 cells and in the experiment on Caov-3 cells were 2.64 µM, 2.95 µM and 6.76 µM, respectively.
With `Nc1ncnc2c1c(Br)cn2[C@@H]1C[C@H](c2cccc(CNCC34CC(F)(C3)C4)c2)[C@@H](O)[C@H]1O` [Example 39, (1R,2S,3R,5R)-3-{4-amino-5-bromo-7H-pyrrolo[2,3-d]pyrimidin-7-yl}-5-(3-{[{{3-fluorobicyclo[1.1.1]pentan-1-yl}methyl)amino]methyl}phenyl)cyclopentane-1,2-diol], the IC50 was found to be 3.01 µM against METTL3/14, 2.39 µM with KASUMI-1 cells and 4.65 µM in the experiment on Caov-3 cells.
